This is an account of results in ChEMBL document CHEMBL1201862, “PubChem BioAssay data set” (2004).

Among the test systems are MDA-MB-435; Hs-578T; PC-3; MDA-N; T47D.
Assay in all cases: growth of human tumour cells (NCI), 48 h

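All cell lines were grown in 96-well plates and treated with compound for 48 hours. GI50 is the concentration that inhibits growth by half.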 Activity calls are given as the source filed them. Rule as the data show it: active = GI50 up to about 1.1 µM and inactive = higher.

`CCCSc1cc(Cl)c(C)cc1S(=O)(=O)n1ccnc1OCCCN(C)C`: the GI50 in the assay on MDA-MB-435, with Hs-578T, in the assay with PC-3, with MDA-N and in the assay on T47D was > 100 µM (inactive) throughout.

Turning to `N#C/C(=C/C=C/c1ccco1)C(N)=O`, the GI50 in the assay on MDA-MB-435, with Hs-578T, in the assay with PC-3, in the assay with MDA-N and in the assay with T47D was > 10 µM (inactive) each time.

On to `O=C(NNC(=O)c1ccncc1)c1ccncc1`, for which the GI50 in the assay with MDA-MB-435, with Hs-578T, with PC-3, with MDA-N and in the assay with T47D was > 100 µM (inactive) in each case.

For `CC(C)C1C(=O)N(c2c(F)c(F)c(F)c(F)c2F)C(=S)N1CC[S+]([O-])c1ccccc1` (stereo not given), the GI50 with MDA-MB-435 is 17.5 µM (inactive); in the assay on Hs-578T, 30.2 µM (inactive); with PC-3 it was 15.4 µM (inactive); in the assay on MDA-N, 17.3 µM (inactive); in the assay on T47D, 6.78 µM (inactive).

In the case of `Cc1ccc(S(=O)(=O)NC(CO)C(=O)O)cc1` (stereo not given), the GI50 in the assay with MDA-MB-435, in the assay with Hs-578T, in the assay on PC-3, in the assay on MDA-N and in the assay with T47D was > 100 µM (inactive) in each case.

For `Nc1nc(Cl)cc(NC2(CO)CCC2)n1`, the GI50 in the assay on MDA-MB-435, with Hs-578T, in the assay with PC-3, in the assay with MDA-N and with T47D was > 100 µM (inactive) in each case.

`COC(=O)c1cc(/C=C/C(=O)Cc2ccccc2)cn1S(=O)(=O)c1ccccc1`: the GI50 with Hs-578T, with PC-3, in the assay on MDA-N and with T47D was > 100 µM (inactive) throughout.

Turning to `CSc1nc(=O)n(CCC#N)nc1SC`, the GI50 in the assay on MDA-MB-435 was 23.1 µM (inactive); with Hs-578T it was 27.6 µM (inactive); with PC-3, 66.5 µM (inactive); in the assay with MDA-N, 20.4 µM (inactive); with T47D, 24.3 µM (inactive).

Turning to `Clc1cccc(N/N=N/c2ccc(-c3nc4ccccc4s3)cc2)c1`, the GI50 with MDA-MB-435 was 30.6 µM (inactive); in the assay on Hs-578T it was > 100 µM (inactive); in the assay on PC-3, 41.6 µM (inactive); in the assay with MDA-N it was 26.4 µM (inactive); with T47D, 47.9 µM (inactive).

As for `COc1c(/C=C/C=O)cc2c(c1OC)OCO2`, the GI50 was 49.3 µM (inactive) in the assay with MDA-MB-435; 55.8 µM (inactive) in the assay on Hs-578T; 34.5 µM (inactive) in the assay on PC-3; 24.5 µM (inactive) in the assay with MDA-N; 23.3 µM (inactive) with T47D.

On to `Cc1cc(NS(=O)(=O)c2ccc(Nc3c4ccccc4nc4ccc(C(=O)Nc5ccc(S(N)(=O)=O)cc5)cc34)cc2)no1`, for which the GI50 in the assay with MDA-MB-435 is > 100 µM (inactive); with Hs-578T, > 100 µM (inactive); in the assay with PC-3 it was > 100 µM (inactive); in the assay on MDA-N, > 100 µM (inactive); with T47D, 84.3 µM (inactive).

In the case of `N#Cc1c(C#N)c(-c2ccccc2)n(Cc2ccccc2)c1N`, the GI50 was > 100 µM (inactive) in the assay on MDA-MB-435; 25.6 µM (inactive) in the assay with Hs-578T; > 100 µM (inactive) in the assay with PC-3; > 100 µM (inactive) in the assay on MDA-N; > 100 µM (inactive) in the assay on T47D.

`CC(=O)NNc1nc(C)c(C(/C=C/c2ccc([N+](=O)[O-])cc2)=N/NC(N)=O)s1`: the GI50 in the assay on MDA-MB-435, with Hs-578T, in the assay with PC-3, with MDA-N and with T47D was > 100 µM (inactive) throughout.

For `COC(=O)C[C@H](COCc1ccccc1)NC(=O)C[C@H](COCc1ccccc1)NC(=O)C[C@H](COCc1ccccc1)NC(=O)OC(C)(C)C`, the GI50 in the assay on MDA-MB-435 was 32.8 µM (inactive); in the assay with Hs-578T, 34.6 µM (inactive); with PC-3, 13.2 µM (inactive); in the assay on MDA-N it was > 100 µM (inactive); with T47D it was 24.7 µM (inactive).

Take `CC(C)=CCc1c2c(c(O)c3c(=O)c4c(oc13)-c1ccc(O)cc1OC4C=C(C)C)C=CC(C)(C)O2` (stereo not given): the GI50 with MDA-MB-435 was 10.6 µM (inactive); in the assay on Hs-578T, 2.37 µM (inactive); in the assay with PC-3, 12.1 µM (inactive); with MDA-N, 13.2 µM (inactive); in the assay on T47D it was 8.79 µM (inactive).

Turning to `COc1cc(/C=C2\C[C@H]3[C@@H]4CC=C5C[C@@H](OC(C)=O)CC[C@]5(C)[C@H]4CC[C@]3(C)\C2=N\O)cc(OC)c1OC`, the GI50 in the assay on MDA-MB-435 was 3.82 µM (inactive); with Hs-578T, 4.37 µM (inactive); with PC-3, 2.54 µM (inactive); in the assay on MDA-N it was 4.62 µM (inactive); in the assay on T47D it was 1.64 µM (inactive).

As for `C[C@@H]1S[C@H](c2c(Cl)cccc2Cl)N2Cc3ccccc3N=C12`, the GI50 with MDA-MB-435, with Hs-578T, with PC-3, in the assay with MDA-N and in the assay with T47D was > 100 µM (inactive) in each case.

Consider `Cc1ccc([S+]([O-])c2sccc2C=O)cc1` (stereo not given), for which the GI50 in the assay with MDA-MB-435 is 24.7 µM (inactive); with Hs-578T it was 24.4 µM (inactive); in the assay on PC-3, 34 µM (inactive); in the assay on MDA-N it was 27.6 µM (inactive); with T47D, 43.7 µM (inactive).

Regarding `Cn1c(=N)n[n+]([O-])c2ccccc21`, the results for the GI50 with MDA-MB-435, in the assay with PC-3 and in the assay with MDA-N were 0.877 µM (active), 6.28 µM (inactive) and 1.66 µM (inactive), respectively.

As for `CCCCCOc1ccc(NC2=C(Cl)C(=O)c3c(O)ccc(O)c3C2=O)cc1`, the GI50 in the assay with MDA-MB-435 was 2.24 µM (inactive); with Hs-578T, 1.91 µM (inactive); in the assay on PC-3, 5.25 µM (inactive); with MDA-N, 3.03 µM (inactive); with T47D, 2.76 µM (inactive).

`CSc1c(C#N)c(O)n(-c2ccc(C)cc2)c(=O)c1C#N`: the GI50 in the assay with MDA-MB-435, with Hs-578T, in the assay with PC-3, in the assay with MDA-N and with T47D was > 100 µM (inactive) in each case.

On to `O=C(CSCC(=O)N/N=C/c1ccncc1)N/N=C/c1ccncc1`, for which the GI50 in the assay with MDA-MB-435, in the assay on Hs-578T, with PC-3 and in the assay with T47D was > 100 µM (inactive) in each case.

With `COc1ccc2c(c1)CN1C(=N2)CSC1c1cccc(Br)c1` (stereo not given), the GI50 was 6.15 µM (inactive) in the assay on MDA-MB-435; 53.6 µM (inactive) in the assay on Hs-578T; 17.7 µM (inactive) in the assay with PC-3; 4.1 µM (inactive) in the assay with MDA-N; 52.7 µM (inactive) in the assay with T47D.

For `Nc1cc(CO)cc(Nc2nc3ccc(Cl)cc3c3[nH]c4ccccc4c23)c1`, the GI50 in the assay on MDA-MB-435 was 3.85 µM (inactive); in the assay with Hs-578T it was 5.43 µM (inactive); in the assay on PC-3 it was 4.92 µM (inactive); in the assay on MDA-N, 6.65 µM (inactive); in the assay on T47D it was 3.74 µM (inactive).

On to `O=C(/C=C/c1ccc(-c2ccccc2)cc1)NCc1ccc(C(=O)NCCc2c[nH]c3ccccc23)cc1`, for which the GI50 with MDA-MB-435 is > 100 µM (inactive); in the assay with Hs-578T, 38.5 µM (inactive); in the assay with PC-3, 23.5 µM (inactive); in the assay on MDA-N, 49.2 µM (inactive); with T47D it was 22 µM (inactive).

With `COc1cc(OCCN(C)C)c2[nH]c(C(=O)N3CC(CCl)c4ccc(N)cc43)cc2c1` (stereo not given), the GI50 in the assay with MDA-MB-435 is 0.0475 µM (active); with Hs-578T it was 0.361 µM (active); in the assay with PC-3 it was 0.0241 µM (active); in the assay with MDA-N, 0.0643 µM (active); in the assay on T47D, 0.0312 µM (active).

For the compound `Cc1ccc(OCC2OC(n3cnc4c(N(C)C)nc(Br)nc43)CC2Oc2ccc(C)cc2)cc1` (stereo not given), the GI50 in the assay with MDA-MB-435, in the assay on Hs-578T, in the assay with PC-3, in the assay on MDA-N and with T47D was > 100 µM (inactive) in each case.

For `CO/C(=C/C(=O)C(Cl)(Cl)Cl)CC/C(=C\C(=O)C(Cl)(Cl)Cl)OC`, the GI50 is 19.8 µM (inactive) in the assay with MDA-MB-435; 35.9 µM (inactive) in the assay on Hs-578T; 27.4 µM (inactive) in the assay with PC-3; 22.8 µM (inactive) in the assay with MDA-N; 25.4 µM (inactive) with T47D.

Take `NC1c2c(Br)sc(N3CCCC3)c2C(=O)C1O` (stereo not given): the GI50 in the assay on MDA-MB-435, with Hs-578T, in the assay with PC-3, with MDA-N and with T47D was > 50 µM (inactive) in each case.

Consider `COc1ccc(/C=C2/CSCC3=C2N=C(S)NC3c2ccc(OC)c(OC)c2OC)c(OC)c1OC` (stereo not given), for which the GI50 in the assay on MDA-MB-435 is 7.82 µM (inactive); in the assay with Hs-578T, > 100 µM (inactive); with PC-3 it was 12.1 µM (inactive); with T47D it was 43.4 µM (inactive).

Regarding `CC1(C)C=Cc2c(cc3oc4ccc5c(c4c(=O)c3c2O)C=CC(C)(C)O5)O1`, the GI50 in the assay with MDA-MB-435, in the assay on Hs-578T, in the assay with PC-3, in the assay with MDA-N and with T47D was > 100 µM (inactive) in each case.

In the case of `Cc1ccc(C(=O)N/N=C(\N=N\c2ccccc2)c2ccc(N(CCC#N)CCC#N)cc2C)cc1`, the GI50 was 45.6 µM (inactive) with MDA-MB-435, 28.2 µM (inactive) in the assay with Hs-578T, 67.9 µM (inactive) in the assay with PC-3 and > 100 µM (inactive) in the assay with T47D.

Take `CCN(CC)CCOC(NC(C)=O)(c1ccccc1)c1ccccc1`: the GI50 with MDA-MB-435, in the assay on Hs-578T and in the assay on T47D was > 100 µM (inactive) in each case.

In the case of `CC(=O)C1(Cc2cccc3ccccc23)S(=O)(=O)OCCOS1(=O)=O`, the GI50 in the assay with MDA-MB-435 was 14.7 µM (inactive); in the assay with PC-3, 14.2 µM (inactive); with MDA-N, 11.8 µM (inactive); in the assay on T47D it was 18.5 µM (inactive).

Consider `CC(=O)OC1CC[C@@]2(C)C(=CC[C@@H]3[C@@H]2CC[C@]2(C)C(OC(C)=O)[C@H](n4ccnc4)C[C@@H]32)C1` (stereo not given in full), for which the GI50 was 16.9 µM (inactive) in the assay with MDA-MB-435, 47 µM (inactive) in the assay on Hs-578T, 16.2 µM (inactive) in the assay on PC-3 and 21 µM (inactive) in the assay on MDA-N.
